Structures are written as SMILES. Bounds are passed on as bounds.

One may read the EC50 as the concentration giving half of the maximal effect.

T1 sequence (P13569 with tags, fused parts or gaps DEL508-508): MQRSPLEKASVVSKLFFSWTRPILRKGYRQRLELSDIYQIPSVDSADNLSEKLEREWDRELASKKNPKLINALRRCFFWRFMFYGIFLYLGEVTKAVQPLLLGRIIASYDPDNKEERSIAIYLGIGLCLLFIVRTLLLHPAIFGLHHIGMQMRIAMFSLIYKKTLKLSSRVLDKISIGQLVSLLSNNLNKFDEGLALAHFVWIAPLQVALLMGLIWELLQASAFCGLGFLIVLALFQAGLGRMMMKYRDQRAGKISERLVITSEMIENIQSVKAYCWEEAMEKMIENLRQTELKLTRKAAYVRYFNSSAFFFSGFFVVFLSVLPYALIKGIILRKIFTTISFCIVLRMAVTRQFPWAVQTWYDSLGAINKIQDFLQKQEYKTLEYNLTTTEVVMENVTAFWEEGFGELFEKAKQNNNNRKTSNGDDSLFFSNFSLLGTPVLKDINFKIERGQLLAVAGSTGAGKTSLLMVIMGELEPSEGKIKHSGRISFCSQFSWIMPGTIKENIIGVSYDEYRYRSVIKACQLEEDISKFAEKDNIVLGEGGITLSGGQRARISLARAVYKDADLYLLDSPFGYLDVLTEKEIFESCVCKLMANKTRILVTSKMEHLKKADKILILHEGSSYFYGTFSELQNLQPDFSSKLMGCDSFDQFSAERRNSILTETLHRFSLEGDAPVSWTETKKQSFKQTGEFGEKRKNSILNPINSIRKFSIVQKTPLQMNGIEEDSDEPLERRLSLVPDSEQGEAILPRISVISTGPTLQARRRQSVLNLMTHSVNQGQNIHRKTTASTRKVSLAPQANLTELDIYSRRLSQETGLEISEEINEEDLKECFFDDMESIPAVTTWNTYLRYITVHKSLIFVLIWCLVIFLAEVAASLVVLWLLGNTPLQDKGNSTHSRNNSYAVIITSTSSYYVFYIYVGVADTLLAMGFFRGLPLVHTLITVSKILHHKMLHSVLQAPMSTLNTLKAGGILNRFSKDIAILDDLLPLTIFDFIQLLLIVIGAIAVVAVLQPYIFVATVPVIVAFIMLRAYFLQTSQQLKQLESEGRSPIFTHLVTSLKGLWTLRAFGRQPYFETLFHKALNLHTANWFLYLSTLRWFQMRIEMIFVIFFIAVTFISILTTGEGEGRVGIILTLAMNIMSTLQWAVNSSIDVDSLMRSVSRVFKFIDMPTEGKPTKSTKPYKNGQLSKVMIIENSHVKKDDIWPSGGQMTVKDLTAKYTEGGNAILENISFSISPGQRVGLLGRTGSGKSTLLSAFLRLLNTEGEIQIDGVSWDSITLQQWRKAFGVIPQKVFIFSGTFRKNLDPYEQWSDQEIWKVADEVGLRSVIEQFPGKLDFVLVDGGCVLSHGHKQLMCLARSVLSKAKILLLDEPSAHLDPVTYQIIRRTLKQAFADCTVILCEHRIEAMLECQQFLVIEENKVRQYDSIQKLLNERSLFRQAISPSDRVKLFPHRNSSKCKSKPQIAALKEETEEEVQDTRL

One test has as its target T1, ΔF508-CFTR (Homo sapiens, UniProt P13569, DEL508-508).
T1 construct: expressed in transfected cells
Briefly: Membrane potential optical assay (FRET voltage-sensor dyes, VIPR), identification of potentiator compounds. It counts as cell-based. To be noted: Table 3; assay not given. The gist of the method:
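NIH3T3 mouse fibroblasts stably expressing ΔF508-CFTR, cultured 24 h at 27 °C, were loaded with FRET voltage dyes CC2-DMPE and DiSBAC2(3). Double-addition format: first addition of Cl⁻-free (gluconate) medium with or without compound; membrane-potential change read as fluorescence on VIPR II.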
In the case of `CC(=O)Nc1cccc(-c2ccccc2NC(=O)c2c[nH]c3ccccc3c2=O)c1` [Compound 25, N-[2-(3-acetylaminophenyl)phenyl]-4-oxo-1H-quinoline-3-carboxamide], the half-maximal effective concentration (EC50) is 10 to 25 µM.

On to `O=C(Nc1ccc(N2CCCC2)cc1)c1c[nH]c2ccccc2c1=O` [Compound 674, 4-oxo-N-(4-pyrrolidin-1-ylphenyl)-1H-quinoline-3-carboxamide], for which the EC50 was below 10 µM.

Still in this test, the particulars now being: Table 3; assay not given; read-out: % Activity (% Efficacy, relative efficacy).
For `CC(C)(C)c1ccc(NC(=O)c2c[nH]c3ccccc3c2=O)cc1F` [Compound 645, N-(3-fluoro-4-tert-butyl-phenyl)-4-oxo-1H-quinoline-3-carboxamide], the Emax was in the range of 25 to 100%.

Consider `Cc1cccc2[nH]cc(C(=O)Nc3ccc(N4CCC(F)(F)C4)cc3C(F)(F)F)c(=O)c12` [Compound 528, N-[4-(3,3-difluoropyrrolidin-1-yl)-2-(trifluoromethyl)phenyl]-5-methyl-4-oxo-1H-quinoline-3-carboxamide], for which the Emax is 25 to 100%.

For `O=C(Nc1ccccc1-c1cc(Cl)ccc1Cl)c1c[nH]c2ccccc2c1=O` [Compound 213, N-[2-(2,5-dichlorophenyl)phenyl]-4-oxo-1H-quinoline-3-carboxamide], the Emax lay in the range of 25 to 100%.

`CCOCCOc1cc(NC(=O)c2c[nH]c3ccccc3c2=O)ccc1C(C)(C)C` [Compound 161, N-[3-(2-ethoxyethoxy)-4-tert-butyl-phenyl]-4-oxo-1H-quinoline-3-carboxamide]: the Emax is 25 to 100%.

In the case of `Cc1ccccc1NC(=O)c1c[nH]c2ccccc2c1=O` [Compound 459, N-(o-tolyl)-4-oxo-1H-quinoline-3-carboxamide], the Emax was in the range of 25 to 100%.

Take `O=C(Nc1ccc(-c2ccccc2CNC(=O)C(F)(F)F)cc1)c1c[nH]c2ccccc2c1=O` [Compound 224, 4-oxo-N-[4-[2-[(2,2,2-trifluoroacetyl)aminomethyl]phenyl]phenyl]-1H-quinoline-3-carboxamide]: the Emax is 25 to 100%.

Regarding `O=C(Nc1ccc(F)cn1)c1c[nH]c2ccccc2c1=O` [Compound 477, N-(5-fluoro-2-pyridyl)-4-oxo-1H-quinoline-3-carboxamide], the Emax was below 25%.

`CC(=O)Nc1cccc(-c2ccccc2NC(=O)c2c[nH]c3ccccc3c2=O)c1` [Compound 25, N-[2-(3-acetylaminophenyl)phenyl]-4-oxo-1H-quinoline-3-carboxamide]: the Emax lay in the range of 25 to 100%.

Consider `CC(=O)N1CCC2(CCN(C(=O)OC(C)(C)C)CC2)c2ccc(NC(=O)c3c[nH]c4ccccc4c3=O)cc21` [Compound 334, 7′-[(4-oxo-1H-quinolin-3-ylcarbonyl)amino]-spiro[piperidine-4,4′(1′H)-1-acetyl-quinoline], 2′,3′-dihydro-carboxylic acid tert-butyl ester], for which the Emax lay in the range of 25 to 100%.

With `O=C(Nc1cccc2cc[nH]c12)c1c[nH]c2ccccc2c1=O` [Compound 37, N-(1H-indol-7-yl)-4-oxo-1H-quinoline-3-carboxamide], the Emax was in the range of 25 to 100%.

As to `CN(c1ccc(F)cc1)S(=O)(=O)c1ccc2[nH]cc(C(=O)Nc3cc4[nH]ccc4cc3C(C)(C)C)c(=O)c2c1` [Compound 406, 6-[(4-fluorophenyl)-methyl-sulfamoyl]-4-oxo-N-(5-tert-butyl-1H-indol-6-yl)-1H-quinoline-3-carboxamide], the Emax was 25 to 100%.

With `CC(C)c1cccc(-c2ccccc2NC(=O)c2c[nH]c3ccccc3c2=O)c1` [Compound 290, N-[2-(3-isopropylphenyl)phenyl]-4-oxo-1H-quinoline-3-carboxamide], the Emax was 25 to 100%.

As for `CCCc1ccccc1NC(=O)c1c[nH]c2ccccc2c1=O` [Compound 16, 4-oxo-N-(2-propylphenyl)-1H-quinoline-3-carboxamide], the Emax was 25 to 100%.

On to `O=C(Nc1cc(O)cc(C(F)(F)F)c1)c1c[nH]c2cccc(O)c2c1=O` [Compound 599, 5-hydroxy-N-[3-hydroxy-5-(trifluoromethyl)phenyl]-4-oxo-1H-quinoline-3-carboxamide], for which the Emax is 25 to 100%.

Regarding `CNc1ccc(C(C)C)c(NC(=O)c2c[nH]c3ccccc3c2=O)c1` [Compound 399, N-(2-isopropyl-5-methylamino-phenyl)-4-oxo-1H-quinoline-3-carboxamide], the Emax was in the range of 25 to 100%.

As for `CC(C)c1cccc(C(C)C)c1NC(=O)c1c[nH]c2ccccc2c1=O` [Compound 466, N-(2,6-diisopropylphenyl)-4-oxo-1H-quinoline-3-carboxamide], the Emax fell in the range of 25 to 100%.

Take `CSc1ccccc1NC(=O)c1c[nH]c2ccccc2c1=O` [Compound 229, N-(2-methylsulfanylphenyl)-4-oxo-1H-quinoline-3-carboxamide]: the Emax is 25 to 100%.

`CCC(C)c1c[nH]c2cc(NC(=O)c3c[nH]c4ccccc4c3=O)ccc12` (stereo not drawn) [Compound 259, 4-oxo-N-(3-sec-butyl-1H-indol-6-yl)-1H-quinoline-3-carboxamide]: the Emax lay in the range of 25 to 100%.

As for `O=C(Nc1ccc(N2CCCC2)cc1)c1c[nH]c2ccccc2c1=O` [Compound 674, 4-oxo-N-(4-pyrrolidin-1-ylphenyl)-1H-quinoline-3-carboxamide], the Emax was in the range of 25 to 100%.

As for `O=C(Nc1ccc(OC(F)(F)F)c(N2CCCC2)c1)c1c[nH]c2ccccc2c1=O` [Compound 579, 4-oxo-N-[3-pyrrolidin-1-yl-4-(trifluoromethoxy)phenyl]-1H-quinoline-3-carboxamide], the Emax lay within 25 to 100%.

Turning to `COc1ccc(NC(=O)c2c[nH]c3ccccc3c2=O)cc1` [Compound 439, N-(4-methoxyphenyl)-4-oxo-1H-quinoline-3-carboxamide], the Emax is 25 to 100%.

For `CC(C)(C)c1cc(C(C)(C)C)c(NC(=O)c2c[nH]c3c(C#N)cccc3c2=O)cc1O` [Compound 505, 8-cyano-N-(5-hydroxy-2,4-ditert-butyl-phenyl)-4-oxo-1H-quinoline-3-carboxamide], the Emax was below 25%.

As for `Nc1nc2ccc(NC(=O)c3c[nH]c4ccccc4c3=O)cc2s1` [Compound 671, N-(2-aminobenzothiazol-6-yl)-4-oxo-1H-quinoline-3-carboxamide], the Emax is 25 to 100%.

As for `COCCn1ccc2cc(C(F)(F)F)c(NC(=O)c3c[nH]c4ccc(F)cc4c3=O)cc21` [Compound 566, 6-fluoro-N-[1-(2-methoxyethyl)-5-(trifluoromethyl)indol-6-yl]-4-oxo-1H-quinoline-3-carboxamide], the Emax lay within 25 to 100%.

In the case of `O=C(Nc1ccc2c(c1)CCO2)c1c[nH]c2ccccc2c1=O` [Compound 467, N-(2,3-dihydrobenzofuran-5-yl)-4-oxo-1H-quinoline-3-carboxamide], the Emax is below 25%.

As to `CCOc1ccccc1-c1ccc(CN)cc1NC(=O)c1c[nH]c2ccccc2c1=O` [Compound 163, 4-Oxo-1,4-dihydro-quinoline-3-carboxylic acid (4-aminomethyl-2′-ethoxy-biphenyl-2-yl)-amide], the Emax is 25 to 100%.

For `CCc1cc2cc[nH]c2cc1NC(=O)c1c[nH]c2cccc(O)c2c1=O` [Compound 591, N-(5-ethyl-1H-indol-6-yl)-5-hydroxy-4-oxo-1H-quinoline-3-carboxamide], the Emax fell in the range of 25 to 100%.

For `O=C(Nc1ccccc1-c1ccc(CO)cc1)c1c[nH]c2ccccc2c1=O` [Compound 302, N-[2-[4-(hydroxymethyl)phenyl]phenyl]-4-oxo-1H-quinoline-3-carboxamide], the Emax is 25 to 100%.

Regarding `O=C(Nc1ccc2cc[nH]c2c1)c1c[nH]c2ccccc2c1=O` [Compound 33, N-(1H-indol-6-yl)-4-oxo-1H-quinoline-3-carboxamide], the Emax is 25 to 100%.

In the case of `CC(C)(C)c1cc(NC(=O)c2c[nH]c3ccccc3c2=O)c(O)c(C(C)(C)C)c1` [Compound 136, N-(2-hydroxy-3,5-ditert-butyl-phenyl)-4-oxo-1H-quinoline-3-carboxamide], the Emax is 25 to 100%.

For `CCOc1ccccc1-c1ccc(NC(=O)OC(C)(C)C)cc1NC(=O)c1c[nH]c2ccccc2c1=O` [Compound 114, [4-(2-ethoxyphenyl)-3-[(4-oxo-1H-quinolin-3-yl)carbonylamino]phenyl]aminoformic acid tert-butyl ester], the Emax fell in the range of 25 to 100%.

Consider `CC(C)(C)C(=O)Nc1ccc(NC(=O)c2c[nH]c3ccccc3c2=O)c(C(F)(F)F)c1` [Compound 556, N-[4-(2,2-dimethylpropanoylamino)-2-(trifluoromethyl)phenyl]-4-oxo-1H-quinoline-3-carboxamide], for which the Emax is 25 to 100%.

Take `CC1CCN(c2ccc(NC(=O)c3c[nH]c4ccccc4c3=O)c(C(F)(F)F)c2)C1` (stereo not drawn) [Compound 555, N-[4-(3-methylpyrrolidin-1-yl)-2-(trifluoromethyl)phenyl]-4-oxo-1H-quinoline-3-carboxamide]: the Emax lay within 25 to 100%.

For `CC(C)(C)c1cc(C(F)(F)F)c(NC(=O)c2c[nH]c3ccccc3c2=O)cc1O` [Compound 266, N-[5-hydroxy-4-tert-butyl-2-(trifluoromethyl)phenyl]-4-oxo-1H-quinoline-3-carboxamide], the Emax was 25 to 100%.

These data come from patent publication US8802700B2 (Vertex Pharmaceuticals Incorporated, priority 2010, dated 2014).
